Experimental data reported in the supplement of paper PMC10307832.

Assays:
Test in all cases: relative viability (nuclei count vs DMSO), 5 days (fraction); higher = more cells survive
[1] = compound: C1CNCCC1C2=CC(=NN2)C3=CC=NC=C3 + Cc1nc(Nc2ncc(C(=O)Nc3c(C)cccc3Cl)s2)cc(N2CCN(CCO)CC2)n1 [Dasatinib] (partner 0.075 µM)
Summary of the method: (§1)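 For relative viability, nuclei counts in treated wells were divided by those in vehicle wells. Lung cancer cell lines had been pin-tool dosed in 1536-well plates the day after seeding and cultured for 5 days, then fixed and stained in one step (final 0.05% Triton X-100, 1% formaldehyde, 1 ug/ml Hoechst) and imaged at 4×. Doses were one drug alone or a fixed anchor-drug dose plus five library-drug doses (not always all listed) in √10 steps, and values are duplicate-plate medians.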

[2] = compound: C1CNCCC1C2=CC(=NN2)C3=CC=NC=C3 + Nc1nc2[nH]cc(CCc3ccc(C(=O)N[C@@H](CCC(=O)O)C(=O)O)cc3)c2c(=O)[nH]1 [Pemetrexed] (partner 0.2 µM)
Summary of the method: as §1

[3] = compound: C[C@@H](N)c1ccc(C(=O)Nc2ccnc3[nH]ccc23)cc1 + C[C@]1(O)C[C@@H](c2nc(-c3ccc4ccc(-c5ccccc5)nc4c3)c3c(N)nccn32)C1 [Linsitinib] (partner 1 µM)
Summary of the method: as §1

Tanzisertib + Lapatinib = compound: O[C@H]1CC[C@H](Nc2ncc3nc(Nc4c(F)cc(F)cc4F)n([C@H]4CCOC4)c3n2)CC1 [Tanzisertib] + CS(=O)(=O)CCNCc1ccc(-c2ccc3ncnc(Nc4ccc(OCc5cccc(F)c5)c(Cl)c4)c3c2)o1 [Lapatinib] (partner 2 µM)
Summary of the method: as §1

UMC-11 gave a relative viability ([1]; first compound 0.08 µM) of 0.498, a relative viability ([1]; first compound 0.8 µM) of 0.543 and a relative viability ([1]; first compound 2.53 µM) of 0.488. For the same cell line, the relative viability ([1]; first compound 8 µM) was 0.521, the relative viability ([2]; first compound 0.08 µM) was 0.653 and the relative viability ([2]; first compound 0.8 µM) was 0.9. It also gave a relative viability ([2]; first compound 2.53 µM) of 0.874, a relative viability ([2]; first compound 8 µM) of 0.811 and a relative viability ([3]; first compound 0.04 µM) of 1.02. The relative viability ([3]; first compound 0.1265 µM) was 1.09, the relative viability ([3]; first compound 0.4 µM) was 1.06 and the relative viability ([3]; first compound 1.265 µM) was 0.958. The relative viability ([3]; first compound 4 µM) was 0.641, the relative viability (Tanzisertib + Lapatinib; first compound 0.08 µM) was 1.13 and the relative viability (Tanzisertib + Lapatinib; first compound 0.253 µM) was 0.974. The relative viability (Tanzisertib + Lapatinib; first compound 0.8 µM) was 1.1, the relative viability (Tanzisertib + Lapatinib; first compound 2.53 µM) was 0.89 and the relative viability (Tanzisertib + Lapatinib; first compound 8 µM) was 0.84.
